Measured values taken from patent EP0545991B1, “PEPTIDES THAT BLOCK HUMAN IMMUNODEFICIENCY VIRUS INFECTIONS AND METHODS OF USE THEREOF” (VAHLNE, Anders, priority 1990, dated 1992).
Where two headings read alike, the source gives them in different places. Where a SMILES comes first, the peptide text is derived from it.

What was measured:
[1] = tested on: peripheral blood mononuclear cells; test: Viability of mononuclear cells, flow cytometry after propidium iodide; assay type: cell-based, human
Protocol: The possibility that Gly-Pro-Gly may affect the viability and/or function of normal human circulating lymphomonocytic cells was examined by adding Gly-Pro-Gly to unfractionated and T cell enriched (CD2^+ = nominal T cells; CD4^+ = putative helper/inducer T cell subset; CD8+ = putative cytotoxic/suppressor T cell subset) peripheral blood mononuclear cell suspensions from healthy normal blood donors.
Thus, the viability of peripheral blood mononuclear cells exposed to Gly-Pro-Gly (2 mM, 4 days) was 99.67% and that of corresponding unexposed cells was 99.66% (mean of 4 experiments).

[2] = In vivo toxicity, growth of mice after intraperitoneal injections; conditions: intraperitoneal injections starting at an age of 6 days; compared with controls
Description: In an in vivo test of the toxicity of Gly-Pro-Gly, groups of mice were given intraperitoneal injections of the substance starting at an age of 6 days. Figure 3 also graphically depicts the results. […] The peptides are thus non-toxic even when given in large doses.

[3] = tested on: herpes simplex virus type I (HSV-1) strain McIntyre; test: Yield inhibition assay of HSV-1 in GMK cells; assay type: cell-based
Protocol: To determine the specificity and toxicity of the peptides, Tyr-Arg-Gly-Pro-Gly, Gly-Pro-Gly and Arg-Gly-Pro-Gly were tested in (1) a plaque reduction assay and (2) a yield inhibition assay of herpes simplex virus type I (HSV-1) strain McIntyre.
The yield inhibition assay was performed as follows: HSV-1 was inoculated at a multiplicity of 0.5 pfu per GMK cell in the presence of the respective peptide at concentrations of 250 and 25 µg/ml. Virus adsorption was performed for 60 min. at room temperature. The cells were then rinsed five times with Hanks' Balanced Salt Solution (BSS) and incubated in a 5% CO2 atmosphere at 37°C with maintenance medium containing either peptides or acyclovir, according to the methods described in "Proceedings of a Symposium on Acyclovir", The American Journal of Medicine, July 20, (1982) which is incorporated herein by reference, or without any additives. Twenty-four hours p.i. the cells were freeze-thawed, scraped into the medium and tested for virus yield by the infectivity assay as outlined in Example 2. The results are shown in Table 7 where the plaque reduction values are the mean of two cultures and the yield of HSV-1 after 24 hours is the mean of two determinations and the values are presented in millions of pfu/ml.

ELI1/HUT [4] = test: Infectivity assay (p24 ELISA, indirect immunofluorescence), ELI-1/HUT; assay type: cell-based, HIV
HTLV IIIB/H9 N.Y. [5] = test: Infectivity assay (p24 ELISA, syncytia formation, indirect immunofluorescence), HTLV-IIIB/H9 New York; assay type: cell-based, HIV
HIV = assay type: cell-based
Protocol: Virus at 100 50% tissue culture infectious doses (TCID50) and peptides at concentrations of 250 and 25 µg/ml were added to the cells simultaneously and incubated for 2 hours at 4°C with frequent stirring. Subsequently, the temperature was increased to 37°C and the mixtures were subjected to a second incubation for 2 hours. […] Cells, at a concentration of 5 x 10^5/ml, were then added to 24 multidish well plates at a final volume of 1.5 ml of growth medium (RPMI supplemented with 10% fetal calf serum (FCS), antibiotics and polybrene (2 µg/ml)), with the addition of peptides at dilutions of 250 or 25 µg/ml. […]
(§1) Infected cells were continuously monitored for formation of syncytia and the growth medium supernatants were analyzed at days 9-12 p.i. for p24 antigen which is an indicator of HIV replication.
Briefly, the following protocol was used for detection of the p24 antigen. HIV p24 antigen was determined using a rabbit anti-p24 polyclonal antiserum as capture antibody and a biotinylated rabbit anti-p24 polyclonal antibody was used as detecting antibody in an avidin-horse radish peroxidase (HRP) ELISA. […] Serial dilutions of the supernatants were made so as to detect p24 concentration in the most accurate range (< 2.0 absorbance units). […]

HTLV IIIB/H9 N.Y. [6] = tested on: HTLV IIIB/H9 N.Y.
Protocol: (§2) Table 1 lists the peptides and their amino acid sequences tested against the following virus/cell systems: • (1) HTLV-111B/H9 Denmark (obtained from Denmark, Bent Faber-Vestergard); • (2) HTLV-111B/H9 New York (obtained from Dr. William Hall, North Shore Hospital, Manhasset, N.Y.); and • (3) ELI-1/HUT (obtained from Dr. Levy, San Francisco, CA).
(§3) Virus at 100 50% tissue culture infectious doses (TCID50) and peptides at concentrations of 250 and 25 µg/ml were added to the cells simultaneously and incubated for 2 hours at 4°C with frequent stirring. Subsequently, the temperature was increased to 37°C and the mixtures were subjected to a second incubation for 2 hours. Following the second incubation, the cells were centrifuged at 325 x g and washed once in RPMI medium (Gibco Laboratories, NY). Cells, at a concentration of 5 x 10^5/ml, were then added to 24 multidish well plates at a final volume of 1.5 ml of growth medium (RPMI supplemented with 10% fetal calf serum (FCS), antibiotics and polybrene (2 µg/ml)), with the addition of peptides at dilutions of 250 or 25 µg/ml. […] As additional controls, two HIV infected cell cultures (designated pos. controls 1 and 2, Tables 3-5) and two uninfected cell cultures (designated neg. controls 1 and 2) were used.
as §1
(§4) Briefly, the following protocol was used for detection of the p24 antigen. HIV p24 antigen was determined using a rabbit anti-p24 polyclonal antiserum as capture antibody and a biotinylated rabbit anti-p24 polyclonal antibody was used as detecting antibody in an avidin-horse radish peroxidase (HRP) ELISA. The sensitivity of the assay allowed detection of approximately 50 pg of p24 antigen per ml supernatant. […] Serial dilutions of the supernatants were made so as to detect p24 concentration in the most accurate range (< 2.0 absorbance units).
(§5) At the end of the experiment, the cells were collected and fixed on slides with acetone according to standard procedures as described in Jeansson et al., Exp. Cell Res., 161:181-188 (1985). The number of infected cells were then determined by indirect immunofluorescence using a human HIV positive serum diluted 1/100 and FITC conjugated antihuman IgG (Bio Merieux, France) diluted 1/200.
(§6) In tables 3-6, the p24 content of the supernatants of infected cells was determined by diluting the supernatants of infected cells in serial tenfold dilutions (1/10, 1/100, 1/1000 and 1/10,000) and analyzing in ELISA as described above. Results are indicated by the absorbance values (454nm) of respective dilutions.
The peptides in their carboxy and amido forms were obtained from Bachem Feinchemikalien AG (Switzerland, GPG-NH2 Bachem, GPG-COOH, Bachem, PG-NH2 Bachem and PG-COOH Bachem) and Syntello (Sweden, GPG-NH2 Syntello). The effectiveness of the peptides was determined by both p24 production and syncytia formation as described in Example 2.
In tables 8 and 9, the p24 content of the supernatants of infected cells was determined by diluting the supernatants in serial tenfold dilutions (1/10, 1/100, 1/1,000) and analyzing by ELISA as described in Example 2. Results are indicated by the absorbance values (454 nm) of respective dilutions.

[7] = tested on: HTLV-IIIB replication in H9 cells; test: Dose response and combination experiments, p24 ELISA; assay type: cell-based, HIV; conditions: Human immunodeficiency virus 1, IIIB, H9, read-out: approximate ID50 (p24 antigen reduced by 50%), supernatants diluted 1/5
Protocol: The results in Tables 10 and 11 were obtained as described in Example 2. The supernatants were tested for p24 on day 8 p.i. Supernatants were serially diluted (1/5, 1/50 and 1/500) and analyzed by ELISA as described in Example 2.

ELI1/HUT [8] = tested on: ELI1/HUT
Protocol: as §2, §3, §1, §4, §5, §6

HTLV IIIB/H9 Denmark = tested on: HTLV IIIB/H9 Denmark
Protocol: as §2, §3, §1, §4, §5, §6

NCC(=O)N1CCC[C@H]1C(=O)NCC(N)=O [GPG, Gly-Pro-Gly-NH2] (H-Gly-Pro-Gly-NH2)
viability of peripheral blood mononuclear cells ([1]; 2 mM, 4 days, mean of 4 experiments, unexposed cells 99.66%): 99.67%
effect on viability of cultured monocytes and lymphocytes ([1]; doses as high as 2 mM, exposure as long as 4 days): did not appreciably affect the viability
influence on the growth of mice [2]: no significant influence

Nc1nc2c(ncn2COCCO)c(=O)[nH]1 [Acyclovir, acyclovir]
yields of HSV-1 ([3]; 2 µM): significantly reduced
YIELD OF HSV AFTER 24 HOURS ([3]; 2 µM, mean of two determinations): 0.9 millions of pfu/ml
activity at 2 µM ([3]; Human alphaherpesvirus 1, GMK, 24 h, read-out: YIELD OF HSV AFTER 24 HOURS PERCENT OF CONTROL): 3%

Arg-Gly-Pro-Gly-Arg (RGPGR; printed: Arg-Gly-Pro-Gly-Arg)
PERCENTAGE OF POS CELLS (ELI1/HUT [4]; 25 µg/ml): 10-15
p24 1/10 (ELI1/HUT [4]; 25 µg/ml): 3 absorbance (454 nm)
p24 1/100 (ELI1/HUT [4]; 25 µg/ml): 2.296 absorbance (454 nm)
p24 1/1,000 (ELI1/HUT [4]; 25 µg/ml): 0.745 absorbance (454 nm)
p24 1/10,000 (ELI1/HUT [4]; 25 µg/ml): 0.263 absorbance (454 nm)
PERCENTAGE OF POS CELLS (ELI1/HUT [4]; 250 µg/ml): 10-15
p24 1/10 (ELI1/HUT [4]; 250 µg/ml): 3 absorbance (454 nm)
p24 1/100 (ELI1/HUT [4]; 250 µg/ml): 1.999 absorbance (454 nm)
p24 1/1,000 (ELI1/HUT [4]; 250 µg/ml): 0.788 absorbance (454 nm)
p24 1/10,000 (ELI1/HUT [4]; 250 µg/ml): 0.339 absorbance (454 nm)
# OF SYNCYTIA/WELL Day 9 (HTLV IIIB/H9 N.Y. [5]; 25 µg/ml): 14
# OF SYNCYTIA/WELL Day 14 (HTLV IIIB/H9 N.Y. [5]; 25 µg/ml): >100
% OF POS CELLS (HTLV IIIB/H9 N.Y. [5]; 25 µg/ml): 5-10%
p24 1/10 (HTLV IIIB/H9 N.Y. [5]; 25 µg/ml): 2.16 absorbance (454 nm)
p24 1/100 (HTLV IIIB/H9 N.Y. [5]; 25 µg/ml): 0.853 absorbance (454 nm)
p24 1/1,000 (HTLV IIIB/H9 N.Y. [5]; 25 µg/ml): 0.268 absorbance (454 nm)
p24 1/10,000 (HTLV IIIB/H9 N.Y. [5]; 25 µg/ml): 0.145 absorbance (454 nm)
# OF SYNCYTIA/WELL Day 9 (HTLV IIIB/H9 N.Y. [5]; 250 µg/ml): 14
# OF SYNCYTIA/WELL Day 14 (HTLV IIIB/H9 N.Y. [5]; 250 µg/ml): >100
% OF POS CELLS (HTLV IIIB/H9 N.Y. [5]; 250 µg/ml): 10%
p24 1/10 (HTLV IIIB/H9 N.Y. [5]; 250 µg/ml): 2.116 absorbance (454 nm)
p24 1/100 (HTLV IIIB/H9 N.Y. [5]; 250 µg/ml): 0.974 absorbance (454 nm)
p24 1/1,000 (HTLV IIIB/H9 N.Y. [5]; 250 µg/ml): 0.334 absorbance (454 nm)
p24 1/10,000 (HTLV IIIB/H9 N.Y. [5]; 250 µg/ml): 0.15 absorbance (454 nm)
infection of treated cells by p24 synthesis and syncytia formation (HIV; Tables 3-5): became infected
prevention of HIV infection by p24 levels and syncytia formation (HIV; Tables 3 to 6): did not prevent HIV infection

Cc1cn([C@H]2C[C@H](N=[N+]=[N-])[C@@H](CO)O2)c(=O)[nH]c1=O [AZT, azidothymidine]
# OF SYNCYTIA/WELL Day 9 (HTLV IIIB/H9 N.Y. [6]; 0.2 µM): 22
# OF SYNCYTIA/WELL Day 14 (HTLV IIIB/H9 N.Y. [6]; 0.2 µM): >100
% OF POS CELLS (HTLV IIIB/H9 N.Y. [6]; 0.2 µM): 10%
# OF SYNCYTIA/WELL Day 14 (HTLV IIIB/H9 N.Y. [6]; 0.2 µM, Table 6): 29
PERCENTAGE OF AG POS CELLS (HTLV IIIB/H9 N.Y. [6]; 0.2 µM, Table 6): 30
# OF SYNCYTIA/WELL Day 9 (HTLV IIIB/H9 N.Y. [6]; 2 µM): 11
# OF SYNCYTIA/WELL Day 14 (HTLV IIIB/H9 N.Y. [6]; 2 µM): >100
% OF POS CELLS (HTLV IIIB/H9 N.Y. [6]; 2 µM): 10-15%
# OF SYNCYTIA/WELL Day 14 (HTLV IIIB/H9 N.Y. [6]; 2 µM, Table 6): 4
PERCENTAGE OF AG POS CELLS (HTLV IIIB/H9 N.Y. [6]; 2 µM, Table 6): 0.5-2
# OF SYNCYTIA/WELL Day 9 (HTLV IIIB/H9 N.Y. [6]; 20 µM): 0
# OF SYNCYTIA/WELL Day 14 (HTLV IIIB/H9 N.Y. [6]; 20 µM): 11
% OF POS CELLS (HTLV IIIB/H9 N.Y. [6]; 20 µM): 0-1%
# OF SYNCYTIA/WELL Day 14 (HTLV IIIB/H9 N.Y. [6]; 20 µM, Table 6): 0
IC50 ([7]; day 8 postinfection): ~0.4 µM
IC50 ([7]; twelve days after infection): ~3.2 µM
PERCENTAGE OF POS CELLS (ELI1/HUT [8]; 0.2 µM): 10
PERCENTAGE OF POS CELLS (ELI1/HUT [8]; 2 µM): 10
PERCENTAGE OF POS CELLS (ELI1/HUT [8]; 20 µM): 10-15
# OF SYNCYTIA/WELL Day 9 (HTLV IIIB/H9 Denmark; 0.2 µM): 16
% OF POS CELLS (HTLV IIIB/H9 Denmark; 0.2 µM): 5-10%
# OF SYNCYTIA/WELL Day 9 (HTLV IIIB/H9 Denmark; 2 µM): 10
% OF POS CELLS (HTLV IIIB/H9 Denmark; 2 µM): 5-8%
# OF SYNCYTIA/WELL Day 9 (HTLV IIIB/H9 Denmark; 20 µM): 0
% OF POS CELLS (HTLV IIIB/H9 Denmark; 20 µM): 0.1-1%
